For assay [1], the target named is T1, hcGAS (Homo sapiens, UniProt Q8N884). The experiment in a line: hcGAS LCMS assay (direct measurement of cGAMP production). The class given is biochemical. The settings on record: 0.5 nM hcGAS, 100 μM ATP, 100 μM GTP, 25 nM dsDNA, 4 h incubation. In outline: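 Direct LC/MS readout of cGAMP formed: 4-h enzyme–substrate incubation with compound, stopped by acetonitrile/water quench carrying isotope-labelled cGAMP (0.15 mM) as standard. Potency reported as IC50 ranges.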
T1 sequence (Q8N884 whole entry): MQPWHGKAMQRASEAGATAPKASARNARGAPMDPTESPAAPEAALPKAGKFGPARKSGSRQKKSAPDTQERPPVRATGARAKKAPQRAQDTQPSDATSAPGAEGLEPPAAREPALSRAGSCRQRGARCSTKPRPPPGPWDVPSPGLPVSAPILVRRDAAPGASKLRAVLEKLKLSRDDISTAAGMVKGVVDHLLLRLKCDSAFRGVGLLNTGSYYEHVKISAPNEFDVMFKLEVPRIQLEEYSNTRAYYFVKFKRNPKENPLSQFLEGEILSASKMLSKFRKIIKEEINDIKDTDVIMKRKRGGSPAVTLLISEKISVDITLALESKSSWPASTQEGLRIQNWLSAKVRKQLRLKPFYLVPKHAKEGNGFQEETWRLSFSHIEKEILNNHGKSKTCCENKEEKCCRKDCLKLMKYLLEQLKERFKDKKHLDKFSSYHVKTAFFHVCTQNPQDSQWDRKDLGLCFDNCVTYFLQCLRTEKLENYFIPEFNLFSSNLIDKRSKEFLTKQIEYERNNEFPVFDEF

For assay [2], the target named is T1, hcGAS. In words: hcGAS Kinase-Glo assay (ATP depletion). The settings on record: 40 nM hcGAS, 100 μM ATP, 100 μM GTP, 25 nM dsDNA, 3 h incubation. The class given is biochemical. The method, then:
cGAS catalyzes the cyclization of ATP and GTP to produce cGAMP, which is the activating ligand of STING. Human cGAS (hcGAS) inhibition can thus be quantified by measuring how much cGAMP is formed either indirectly, by monitoring ATP-depletion as in the hcGAS Kinase-Glo assay (as described below), or directly, such as using the hcGAS LCMS assay (as described below).
(i) hcGAS Kinase-Glo Assay
Compounds were tested for their human-cGAS […] inhibition activity using the methodology reported in Lama et al., “Development of human cGAS-specific small molecule inhibitors for repression of dsDNA-triggered interferon expression”, Nature Communications 10, Article number: 2261 (2019), with slight changes to some conditions as shown in Table B.
The results of the assay, expressed in IC50 values, are reported in Table D with the following designations: A represents an IC50 value<0.01 μM; B represents an IC50 value≥0.01 μM and <0.03 μM; C represents an IC50 value≥0.03 μM and <0.1 μM; D represents an IC50 value≥0.1.
(Kinase-Glo measures the ATP left after a reaction by luminescence.)

These results are taken from patent US20240270740A1, “INHIBITORS OF CYCLIC GMP-AMP SYNTHASE AND USES THEREOF” (Ventus Therapeutics U.S., Inc., priority 2022, published 2024).

Where only a bound is given, the exact number is not on record here.

Consider `COC[C@@H]1CCN(c2cc(C(=O)Nc3nnc(-n4nccc4C)s3)oc(=O)c2OC)C1` [Compound 1, (R)-3-methoxy-4-(3-(methoxymethyl)pyrrolidin-1-yl)-N-(5-(5-methyl-1H-pyrazol-1-yl)-1,3,4-thiadiazol-2-yl)-2-oxo-2H-pyran-6-carboxamide], for which the concentration for half-maximal inhibition (IC50) (usually the concentration needed to halve the response being measured) was in the range of 5 to 20 nM at hcGAS [1] and 10 to 30 nM on hcGAS [2].

Regarding `COC[C@@H](C)Nc1cc(C(=O)Nc2nnc(-n3nccc3C)s2)oc(=O)c1OC` [Compound 121, (R)-3-methoxy-4-((1-methoxypropan-2-yl)amino)-N-(5-(5-methyl-1H-pyrazol-1-yl)-1,3,4-thiadiazol-2-yl)-2-oxo-2H-pyran-6-carboxamide], the IC50 on hcGAS [1] lay in the range of 5 to 20 nM; against hcGAS [2], 10 to 30 nM.

At hcGAS [2], `COc1c(N2CCC(CO)CC2)cc(C(=O)Nc2nnc(-n3nccc3C)s2)oc1=O` [Compound 12, 4-(4-(hydroxymethyl)piperidin-1-yl)-3-methoxy-N-(5-(5-methyl-1H-pyrazol-1-yl)-1,3,4-thiadiazol-2-yl)-2-oxo-2H-pyran-6-carboxamide] displayed an IC50 of 10 to 30 nM.

Turning to `COc1c(N2CCC[C@H]2CO)cc(C(=O)Nc2nnc(-n3nccc3C)s2)oc1=O` [Compound 40, (S)-4-(2-(hydroxymethyl)pyrrolidin-1-yl)-3-methoxy-N-(5-(5-methyl-1H-pyrazol-1-yl)-1,3,4-thiadiazol-2-yl)-2-oxo-2H-pyran-6-carboxamide], the IC50 against hcGAS [2] lay within 10 to 30 nM.

In the case of `COCCNc1cc(C(=O)Nc2nnc(-n3ncc(F)c3Cl)s2)oc(=O)c1OC` [Compound 134, N-(5-(5-chloro-4-fluoro-1H-pyrazol-1-yl)-1,3,4-thiadiazol-2-yl)-5-methoxy-4-(2-methoxyethylamino)-6-oxo-6H-pyran-2-carboxamide], at hcGAS [2], the IC50 lay in the range of 30 to 100 nM.

The compound `COCCNc1cc(C(=O)Nc2nnc(-n3nccc3C(F)F)s2)oc(=O)c1OC` [Compound 144, N-(5-(5-(difluoromethyl)-1H-pyrazol-1-yl)-1,3,4-thiadiazol-2-yl)-3-methoxy-4-((2-methoxyethyl)amino)-2-oxo-2H-pyran-6-carboxamide] came in with an IC50 against hcGAS [2] of 10 to 30 nM.

In the case of `CNCCNc1cc(C(=O)Nc2nnc(-n3nccc3C)s2)oc(=O)c1OC` [Compound 204, 3-methoxy-N-(5-(5-methyl-1H-pyrazol-1-yl)-1,3,4-thiadiazol-2-yl)-4-((2-(methylamino)ethyl)amino)-2-oxo-2H-pyran-6-carboxamide], the IC50 at hcGAS [2] is not below 100 nM.

Compound `COc1c(N2CC[C@H](CO)C2)cc(C(=O)Nc2nnc(-n3nccc3C)s2)oc1=O` [Compound 58, (S)-4-(3-(hydroxymethyl)pyrrolidin-1-yl)-3-methoxy-N-(5-(5-methyl-1H-pyrazol-1-yl)-1,3,4-thiadiazol-2-yl)-2-oxo-2H-pyran-6-carboxamide] displayed a 50% inhibitory concentration (IC50) against hcGAS [2] of 10 to 30 nM.

`COc1c(N[C@@H]2CCS(=O)(=O)C2)cc(C(=O)Nc2nnc(-n3nccc3C)s2)oc1=O` [Compound 82, (R)-4-((1,1-dioxidotetrahydrothiophen-3-yl)amino)-3-methoxy-N-(5-(5-methyl-1H-pyrazol-1-yl)-1,3,4-thiadiazol-2-yl)-2-oxo-2H-pyran-6-carboxamide] displayed an IC50 against hcGAS [2] of 30 to 100 nM.

In turn, `COCCN(CCOC)c1cc(C(=O)Nc2nnc(-n3nccc3C)s2)oc(=O)c1OC` [Compound 63, 4-(bis(2-methoxyethyl)amino)-3-methoxy-N-(5-(5-methyl-1H-pyrazol-1-yl)-1,3,4-thiadiazol-2-yl)-2-oxo-2H-pyran-6-carboxamide] gave an IC50 against hcGAS [2] not below 100 nM.

Regarding `COc1c(N2CCC[C@@H]2CO)cc(C(=O)Nc2nnc(-n3nccc3C)s2)oc1=O` [Compound 34, (R)-4-(2-(hydroxymethyl)pyrrolidin-1-yl)-5-methoxy-N-(5-(5-methyl-1H-pyrazol-1-yl)-1,3,4-thiadiazol-2-yl)-6-oxo-6H-pyran-2-carboxamide], the IC50 on hcGAS [2] fell in the range of 30 to 100 nM.

The compound `COCCNc1cc(C(=O)Nc2nnc(-n3nccc3Cl)s2)oc(=O)c1OC` [Compound 148, N-[5-(5-chloropyrazol-1-yl)-1,3,4-thiadiazol-2-yl]-5-methoxy-4-[(2-methoxyethyl)amino]-6-oxopyran-2-carboxamide] showed an IC50 against hcGAS [2] not below 100 nM.

`COc1c(NC23CC(C#N)(C2)C3)cc(C(=O)Nc2nnc(-n3nccc3C)s2)oc1=O` [Compound 45, 4-((3-cyanobicyclo[1.1.1]pentan-1-yl)amino)-3-methoxy-N-(5-(5-methyl-1H-pyrazol-1-yl)-1,3,4-thiadiazol-2-yl)-2-oxo-2H-pyran-6-carboxamide]: the IC50 at hcGAS [2] was in the range of 10 to 30 nM.

On hcGAS [2], `COCCNc1cc(C(=O)Nc2nnc(-c3sncc3Cl)s2)oc(=O)c1OC` [Compound 139, N-(5-(4-chloroisothiazol-5-yl)-1,3,4-thiadiazol-2-yl)-3-methoxy-4-((2-methoxyethyl)amino)-2-oxo-2H-pyran-6-carboxamide] returned an IC50 of 30 to 100 nM.

At hcGAS [2], `COc1c(N[C@H]2C[C@@H](O)C2)cc(C(=O)Nc2nnc(-n3nccc3C)s2)oc1=O` [Compound 65, 4-(((1,3-cis)-3-hydroxycyclobutyl)amino)-3-methoxy-N-(5-(5-methyl-1H-pyrazol-1-yl)-1,3,4-thiadiazol-2-yl)-2-oxo-2H-pyran-6-carboxamide] displayed an IC50 of 30 to 100 nM.

In turn, `COc1c(N2CCC(O)CC2)cc(C(=O)Nc2nnc(-n3nccc3C)s2)oc1=O` [Compound 46, 4-(4-hydroxypiperidin-1-yl)-3-methoxy-N-(5-(5-methyl-1H-pyrazol-1-yl)-1,3,4-thiadiazol-2-yl)-2-oxo-2H-pyran-6-carboxamide] yielded an IC50 at hcGAS [2] of 10 to 30 nM.

Compound `COCCCNc1cc(C(=O)Nc2nnc(-n3nccc3C)s2)oc(=O)c1OC` [Compound 32, 5-methoxy-4-(3-methoxypropylamino)-N-(5-(5-methyl-1H-pyrazol-1-yl)-1,3,4-thiadiazol-2-yl)-6-oxo-6H-pyran-2-carboxamide] yielded an IC50 at hcGAS [2] of 30 to 100 nM.

Take `COc1c(NCC(F)(F)F)cc(C(=O)Nc2nnc(-n3nccc3C)s2)oc1=O` [Compound 90, 3-methoxy-N-(5-(5-methyl-1H-pyrazol-1-yl)-1,3,4-thiadiazol-2-yl)-2-oxo-4-((2,2,2-trifluoroethyl)amino)-2H-pyran-6-carboxamide]: the IC50 against hcGAS [2] was in the range of 10 to 30 nM.

The compound `COc1c(NCC(F)F)cc(C(=O)Nc2nnc(-n3nccc3C)s2)oc1=O` [Compound 89, 4-((2,2-difluoroethyl)amino)-3-methoxy-N-(5-(5-methyl-1H-pyrazol-1-yl)-1,3,4-thiadiazol-2-yl)-2-oxo-2H-pyran-6-carboxamide] showed an IC50 against hcGAS [2] of 10 to 30 nM.

As to `COCC1CCN(c2cc(C(=O)Nc3nnc(-n4nccc4C)s3)oc(=O)c2OC)CC1` [Compound 2, 3-methoxy-4-(4-(methoxymethyl)piperidin-1-yl)-N-(5-(5-methyl-1H-pyrazol-1-yl)-1,3,4-thiadiazol-2-yl)-2-oxo-2H-pyran-6-carboxamide], the IC50 at hcGAS [2] lay in the range of 10 to 30 nM.

As to `COc1c(NC2CC2)cc(C(=O)Nc2nnc(-n3nccc3C)s2)oc1=O` [Compound 180, 4-(cyclopropylamino)-5-methoxy-N-[5-(5-methylpyrazol-1-yl)-1,3,4-thiadiazol-2-yl]-6-oxopyran-2-carboxamide], the IC50 at hcGAS [2] lay within 30 to 100 nM.

Consider `COc1c(NCCCO)cc(C(=O)Nc2nnc(-n3nccc3C)s2)oc1=O` [Compound 35, 4-((3-hydroxypropyl)amino)-3-methoxy-N-(5-(5-methyl-1H-pyrazol-1-yl)-1,3,4-thiadiazol-2-yl)-2-oxo-2H-pyran-6-carboxamide], for which, on hcGAS [2], the IC50 lay in the range of 10 to 30 nM.

In turn, `COc1c(N[C@H]2C[C@H](O)C2)cc(C(=O)Nc2nnc(-n3nccc3C)s2)oc1=O` [Compound 16, 4-(((1,3-trans)-3-hydroxycyclobutyl)amino)-3-methoxy-N-(5-(5-methyl-1H-pyrazol-1-yl)-1,3,4-thiadiazol-2-yl)-2-oxo-2H-pyran-6-carboxamide] had an IC50 against hcGAS [2] of 30 to 100 nM.

Turning to `COC[C@@H]1CCCN1c1cc(C(=O)Nc2nnc(-n3nccc3C)s2)oc(=O)c1OC` [Compound 39, (S)-3-methoxy-4-(2-(methoxymethyl)pyrrolidin-1-yl)-N-(5-(5-methyl-1H-pyrazol-1-yl)-1,3,4-thiadiazol-2-yl)-2-oxo-2H-pyran-6-carboxamide], the 50% inhibitory concentration (IC50) against hcGAS [2] lay within 10 to 30 nM.

At hcGAS [2], `COc1c(NC23CC(C(F)F)(C2)C3)cc(C(=O)Nc2nnc(-n3nccc3C)s2)oc1=O` [Compound 115, 4-((3-(difluoromethyl)bicyclo[1.1.1]pentan-1-yl)amino)-3-methoxy-N-(5-(5-methyl-1H-pyrazol-1-yl)-1,3,4-thiadiazol-2-yl)-2-oxo-2H-pyran-6-carboxamide] yielded an IC50 of 10 to 30 nM.

In the case of `COc1c(NCCN(C)C)cc(C(=O)Nc2nnc(-n3nccc3C)s2)oc1=O` [Compound 181, 4-((2-(dimethylamino)ethyl)amino)-3-methoxy-N-(5-(5-methyl-1H-pyrazol-1-yl)-1,3,4-thiadiazol-2-yl)-2-oxo-2H-pyran-6-carboxamide], on hcGAS [2], the IC50 was not below 100 nM.

With `COc1c(NC2CCS(=O)(=O)CC2)cc(C(=O)Nc2nnc(-n3nccc3C)s2)oc1=O` [Compound 29, 4-((1,1-dioxidotetrahydro-2H-thiopyran-4-yl)amino)-3-methoxy-N-(5-(5-methyl-1H-pyrazol-1-yl)-1,3,4-thiadiazol-2-yl)-2-oxo-2H-pyran-6-carboxamide], the IC50 at hcGAS [2] fell in the range of 30 to 100 nM.
